Data taken from patent US20210130789A1, “METHODS OF STROMAL CELL EXPANSION, USES AND MATERIALS RELATED THERETO” (CITY OF HOPE, priority 2019, published 2021).

Assays:
[1] = system: IPTD-MSCs and islet cells; test: TSG6 and VEGF expression in cells cultured under normoxic condition; format: cell-based, human; conditions: normoxic condition (5% CO2, 21% O2)
Source text: (§1) Furthermore, DMOG protected the human islets and MSC from hypoxia by inhibiting Hypoxia-inducible Factor Prolyl Hydroxylase (HIF-Phase) resulted into augmentation of certain transcription factor(s) associated that could be highly beneficial for the islet and cell survival and function. Islets in particular are oxygen sensitive and when oxygen demand exceeds the supply, the HIF pathway is triggered to adapt for hypoxic conditions as a result of inactivation of HIF-Phase, an enzyme that contributes to degradation of HIF-1α. Thus, inhibiting HIF-Phase enzyme activity leads to increased HIF-1α protein in cells. Up-regulation of HIF-1α at transcriptional and translational levels leads to production of erythropoietin (EPO) and other proteins, including glycolytic enzyme, glucose transporter-1 (Glut-1) and vascular endothelial growth factor (VEGF). These factors are important to protect islets from cytokine induced cell death and also potentiate islet function, survival, and proliferation.

IPTD-MSCs [2] = test: Quantitative real-time PCR of IPTD-MSCs treated in vitro with TNF-α and DMOG; format: cell-based, human; conditions: 24 hours; TNF-α 10 ng/ml and/or DMOG 1 mM; compared to control
Procedure: Recombinant human TNF-α protein (R&D Systems, Minneapolis, Minn.) was reconstituted in research-grade water (Hospira, Lake Forest, Ill.) to a concentration of 100 ng/mL, aliquoted and stored at −20° C. Dimethyloxallyl glycine (DMOG; Cayman Chemicals, Ann Arbor, Mich.) was dissolved in water to yield a stock solution of 57.1 mM, aliquoted (100 μL) and stored at −80° C. IPTD-MSCs were incubated in T-25 flasks in 5 ml of CMRL-1066 medium supplemented with 5% hPL until ˜50% confluent. Cells were cultured for 24 hours in CMRL 1066 medium, or medium containing 10 ng/ml TNF-α, 1 mM DMOG or 1 mM DMOG and 10 ng/ml TNF-α. Following treatment, cells were collected in 1.7-ml Eppendorf tubes and stored in RLT buffer (Qiagen, Germantown, Md.) at −80° C. for future preparation of cDNA.
The TaqMan Gene Expression Assay system (ThermoFisher Scientific) was used to quantify β-ACTIN, TSG-6, NRF2, and VEGF mRNA levels. Total RNA was extracted using a Qiagen Mini Kit (Cat. No. 51306) and converted into cDNA. Real-time quantitative PCR was run in duplicate on a ViiA™ 7 Real-Time PCR System with a 384-well block (ThermoFisher Scientific). Thermal cycles were programmed for 20 seconds at 95° C. for the initial denaturation, followed by 45 cycles of […] at 95° C. for denaturation, 30 seconds at 60° C. for annealing, 60 seconds at 72° C. for extension, and a final extension at 72° C. for 10 minutes. All PCR runs were performed with negative (water) and positive controls. β-ACTIN was used as an internal control to quantify relative gene expression.

IPTD-MSCs [3] = test: Cytokine assay (Luminex) of supernatants from treated IPTD-MSCs; format: cell-based, human
Procedure: Supernatants from cells cultured for 24 hours under various conditions (medium alone, or medium plus DMOG, TNF-α, or DMOG+TNF-α) were collected, and cytokine analysis performed using a Luminex assay kit (Bio-Rad, Hercules, Calif.) according to the manufacturer's protocol. The following growth factors/cytokines were measured: VEGF, IL-6, IL-8, MMP-9, MCP-1, MMP-2, IL-4, IL-10 and […]. Sample were measured in duplicate.

[4] = system: Human umbilical vein endothelial cells (HUVECs); test: In vitro angiogenesis assay: endothelial tube formation with IPTD-MSC conditioned media; format: cell-based; conditions: 24 hours, media from treated IPTD-MSCs
Procedure: Angiogenic capacity was assessed by quantifying endothelial tube formation. Human umbilical vein endothelial cells (HUVECs) (Cell Applications Inc., San Diego, Calif.; Cat #200p-05n) between passages 2 to 6 were cultured in a standard medium. Cells (1×10^5 cells/well) were plated in 24-well plates (Fisher, Cat #930186) coated with Matrigel (Corning, Cat #356234), and incubated for 30 minutes to allow cell attachment. Supernatants (150 μL/well) from control and stimulated IPTD-MSCs (DMOG, TNF-α, or DMOG+TNF-α) were added to obtain a total volume of 300 μL per well. Plates were then incubated at 37° C., 5% CO2 for 24 hours. At 4 and 24 hours, the wells were visualized using a Leica microscope and representative photographic images were obtained. Total endothelial tube number and tube length were determined using ImageJ software (NIH, Bethesda, Md.).

human islets = test: mRNA levels in human islets treated with DMOG; format: cell-based; conditions: DMOG 1 mM
Procedure: (§2) Islets of high and low purity, and mesenchymal stem cells (MSCs) as a potential source of human islets, isolated from human donor pancreata were treated with the PHD inhibitor DMOG. Alterations in gene expression, cell proliferation, survival and metabolism were characterized.
(§3) As shown in FIGS. 10-12, pancreatic-derived human islets and MSCs were treated with DMOG or control at several concentrations and time intervals. The levels of HIF-1a were increased and PHD decreased in DMOG-treated versus control cells, and in a dose-dependent manner.

pancreatic ductal cells = test: mRNA levels in pancreatic ductal cells treated with DMOG; format: cell-based, human; conditions: DMOG 1 mM, one donor
Procedure: One donor was tested. The data are expressed as mean±SD.

[5] = system: pancreatic-derived human islets and MSCs; test: HIF-1a, PHD and survival gene levels in DMOG-treated islets and MSCs; format: cell-based
Procedure: as §2, §3

[6] = system: pancreatic-derived human islets and MSCs; test: Cytokine injury and proliferative capacity of DMOG-treated islets and MSCs in vitro; format: cell-based
Procedure: as §2, §3

diabetic mice = test: Engraftment of DMOG-treated islets in diabetic mice; format: in vivo
human islets and MSC = test: Protection of human islets and MSC from hypoxia; format: cell-based
Source text: as §1

[7] = culture medium after 24 hours, compared to control
[8] = DMOG-treated versus control cells, dose-dependent

COC(=O)CNC(=O)C(=O)OC [DMOG, dimethyloxalylglycine] was tested, and the VEGF upregulated ([1]; IPTD-MSCs and islet cells) was 51 fold, the TSG6 upregulated ([1]; IPTD-MSCs and islet cells for DMOG, MSC for TNF-α plus DMOG) was 31 fold and the NRF2 expression (IPTD-MSCs [2]) was “significantly increased”. The VEGF expression (IPTD-MSCs [2]) was “significantly increased”, the “Levels of MCP-1” value (IPTD-MSCs [3]; conditioned media after 24 hours) was “reduced” and the “secretion of IL-4” value (IPTD-MSCs [3]; [7]) was “enhanced the secretion”. For the same molecule, the “secretion of IL-6” value (IPTD-MSCs [3]; [7]) was “enhanced the secretion”, the “secretion of IL-8” value (IPTD-MSCs [3]; [7]) was “enhanced the secretion” and the “secretion of VEGF” value (IPTD-MSCs [3]; [7]) was “enhanced the secretion”. For the same molecule, the “numbers of cell tubes” value [4] was 21.0±2.0, the tube length [4] was 28.6±9.9 mm and the “mRNA levels of VEGF gene” value (human islets; human islets Fr 1, purity >70%) was “increased mRNA levels”. For the same molecule, the “mRNA levels of EPO gene” value (human islets; human islets Fr 2, purity <50%) was “increased mRNA levels”, the “mRNA levels of INS gene” value (human islets; human islets Fr 2, purity <50%) was “increased mRNA levels” and the “mRNA levels of PDX1 gene” value (human islets; human islets Fr 2, purity <50%) was “increased mRNA levels”. For the same molecule, the “mRNA levels of TSG-6 gene” value (human islets; human islets Fr 2, purity <50%) was “increased mRNA levels”, the “mRNA levels of VEGF gene” value (human islets; human islets Fr 2, purity <50%) was “increased mRNA levels” and the “mRNA levels of TSG-6 gene” value (pancreatic ductal cells) was “increased mRNA levels”. The “mRNA levels of VEGF gene” value (pancreatic ductal cells) was “increased mRNA levels”, the “key survival genes (EPO, glycolytic enzyme, Glut-1, VEGF)” value ([5]; DMOG treatment of islets and MSCs) was “upregulation” and the “levels of HIF-1a” value [5, 8] was “increased”. For the same molecule, the “levels of PHD” value [5, 8] was “decreased”, the proliferative capacity [6] was “higher proliferative capacity” and the “susceptibility to cytokine injury” value [6] was “less susceptible”. For the same molecule, the engraftment (diabetic mice) was “increased engraftment”, the glucose homeostasis (diabetic mice) was “improved glucose homeostasis” and the protection from hypoxia (human islets and MSC) was “protected”.
In the case of TNF-α, the “TSG-6 gene expression levels” value (IPTD-MSCs [2]) is reported as “significantly increased”, the “effect on any of the cytokines examined” value (IPTD-MSCs [3]; culture medium after 24 hours, compared to controls) is reported as “did not have an effect” and the “numbers of cell tubes” value [4] is reported as “no effect”. For the same molecule, the tube length [4] was “no effect”.
